Each compound was assayed against Arabidopsis thaliana SHMT (assay: SHMT activity assay (ED50 SHMT), coupled with N5,N10-CH2-THF dehydrogenase, NADH at 340 nm). Settings: Table 2; values given as upper bounds.
Assay type: biochemical
Protocol: Determination of the ED50 SHMT was carried out as described hereinunder.
Purification of Arabidopsis thaliana SHMT
The following buffers were used during the purification protocol:
Buffer A (Lysis and Wash Buffer): • 20 mM Na-Phosphat (pH 7,4) • 500 mM NaCI • 40 mM Imidazole • 1.0 mM L-Serine • 0.5 mM Pyridoxal-5-phosphate • 0.5 mM DTT
Buffer B (Elution Buffer): • 20 mM Na-Phosphat (pH 7,4) • 500 mM NaCl • 250 mM Imidazole • 1.0 mM L-Serine • 0.5 mM Pyridoxal-5-phosphate • 0.5 mM DTT
All procedures were conducted at 4° C. or on ice. Pellets were suspended in Buffer A containing 1 mg/ml DNAse +Complete EDTA-free protease inhibitor tablet. Cells were lysed using sonication or a French Press device, using standard settings. Lysis was centrifuged at 40000×g for 25 minutes. The supernatant was filtered (0.22 μM) before loading onto a Ni-NTA column.
A gravity flow column containing Ni-NTA resin was equilibrated with 10 CV Buffer A and loaded with filtered cell lysate. The column was then washed with 10 CV Buffer A. Elution was afforded using Buffer B and collected manually as mini-factions. EDTA was added after elution to a final concentration of 1 mM. Fractions were pooled on the basis of the correct band for SHMT visualised via SDS-PAGE and staining.
SHMT Assay Buffer: • 50 mM KH2PO4 (pH 7,4) • 2.0 mM NAD+ • 7.5 mM DTT • 0.3 mM Tetrahydrofolic acid • 4% DMSO
Reaction Start: 20 mM L-Serine
The rate of N5,N10-CH2-THF formation catalyzed by SHMT was monitored at 340 nm by coupling with excess N5,N10-CH2-THF dehydrogenase, which converts NAD+to NADH. Reactions were initiated by adding 20 mM L-Serine. Inhibition of initial velocity was determined by adding various inhibitors of the SHMT reaction and monitored as described. Reactions were measured in a Bio Tek micro titer plate reader following the change in absorption with the formation of NADH for 30 mimnutes.

SMILES	EC50
CCC1(c2cc(C(F)(F)F)cc(C(F)(F)F)c2)C(C#N)=C(N)Oc2[nH]ncc21 (centres unmarked) [Compound 2.64.]	< 1000 nM
CCC1(c2ccc(F)c(C(F)(F)F)c2)C(C#N)=C(N)Oc2[nH]nc(C)c21 (centres unmarked) [Compound 2.65.]	< 1000 nM
Cc1n[nH]c2c1C(c1cccc([N+](=O)[O-])c1)(C(F)(F)F)C(C#N)=C(N)O2 (centres unmarked) [Compound 2.68.]	< 1000 nM
CCC1(c2ccc(NC(=O)OC)cc2)C(C#N)=C(N)Oc2[nH]nc(C)c21 (centres unmarked) [Compound 2.80.]	< 1000 nM
CCC(=O)Nc1ccc(C2(CC)C(C#N)=C(N)Oc3[nH]nc(C)c32)cc1 (centres unmarked) [Compound 2.81.]	< 1000 nM
CCC1(c2cc(C(F)(F)F)cc(C(F)(F)F)c2)C(C#N)=C(N)Oc2[nH]nc(COC)c21 (centres unmarked) [Compound 2.82.]	< 1000 nM
CCCc1n[nH]c2c1C(CC)(c1cc(C(F)(F)F)cc(C(F)(F)F)c1)C(C#N)=C(N)O2 (centres unmarked) [Compound 2.83.]	< 1000 nM
CCCc1n[nH]c2c1C(CC)(c1cccc(Cl)c1)C(C#N)=C(N)O2 (centres unmarked) [Compound 2.85.]	< 10000 nM
CCC1(c2cc(Oc3ccccc3)cc(C(F)(F)F)c2)C(C#N)=C(N)Oc2[nH]nc(C)c21 (centres unmarked) [Compound 2.86.]	< 1000 nM
Cc1n[nH]c2c1C(c1cccc(Cl)c1)(C(F)(F)F)C(C#N)=C(N)O2 (centres unmarked) [Compound 2.87.]	< 10000 nM
CCCC1(c2cc(Cl)cc(Cl)c2)C(C#N)=C(N)Oc2[nH]nc(C)c21 (centres unmarked) [Compound 2.89.]	< 1000 nM
CCCC1(c2ccc(Cl)c(Cl)c2)C(C#N)=C(N)Oc2[nH]nc(C)c21 (centres unmarked) [Compound 2.90.]	< 1000 nM
Cc1n[nH]c2c1C(c1ccc(Cl)cc1)(C(F)(F)C(F)(F)F)C(C#N)=C(N)O2 (centres unmarked) [Compound 2.96.]	< 1000 nM
CCc1n[nH]c2c1C(CC)(c1cccc(C(F)(F)F)c1)C(C#N)=C(N)O2 (centres unmarked) [Compound 2.98.]	< 1000 nM
Cc1n[nH]c2c1C(CCC#N)(c1cccc(Cl)c1)C(C#N)=C(N)O2 (centres unmarked) [Compound 2.100.]	< 10000 nM
CCc1n[nH]c2c1C(c1cccc(C(F)(F)F)c1)(C1CC1)C(C#N)=C(N)O2 (centres unmarked) [Compound 2.104.]	< 1000 nM
CCC1(c2cccc(C(F)(F)F)c2)C(C#N)=C(N)Oc2[nH]nc(CCC(F)F)c21 (centres unmarked) [Compound 2.106.]	< 10000 nM
Cc1n[nH]c2c1C(CC(C)C)(c1cc(C(F)(F)F)cc(C(F)(F)F)c1)C(C#N)=C(N)O2 (centres unmarked) [Compound 2.108.]	< 100 nM
CCCc1n[nH]c2c1C(CC)(c1cc(Cl)cc(Cl)c1)C(C#N)=C(N)O2 (centres unmarked) [Compound 2.110.]	< 1000 nM
CCCc1n[nH]c2c1C(c1ccc(Cl)cc1)(C1CC1)C(C#N)=C(N)O2 (centres unmarked) [Compound 2.115.]	< 100 nM
CCC1(c2cccc(Cl)c2)C(C#N)=C(N)Oc2[nH]nc(C3CC3)c21 (centres unmarked) [Compound 2.117.]	< 10000 nM
CCC1(c2cccc(C(F)(F)F)c2)C(C#N)=C(N)Oc2[nH]nc(C(C)C)c21 (centres unmarked) [Compound 2.118.]	< 1000 nM

SMILES	EC50
CCC1(c2cc(C(F)(F)F)cc(C(F)(F)F)c2)C(C#N)=C(N)Oc2[nH]nc(C(C)C)c21 (centres unmarked) [Compound 2.120.]	< 100 nM
CSc1ccc(C2(C(C)C)C(C#N)=C(N)Oc3[nH]nc(C)c32)cc1 (centres unmarked) [Compound 2.123.]	< 100 nM
COc1ccc(C2(C(C)C)C(C#N)=C(N)Oc3[nH]nc(C)c32)cc1Cl (centres unmarked) [Compound 2.124.]	< 10 nM
Cc1n[nH]c2c1C(CC(C)C)(c1cc(Cl)cc(Cl)c1)C(C#N)=C(N)O2 (centres unmarked) [Compound 2.125.]	< 100 nM
Cc1n[nH]c2c1C(CC(C)C)(c1cccc(Cl)c1)C(C#N)=C(N)O2 (centres unmarked) [Compound 2.126.]	< 1000 nM
CCc1n[nH]c2c1C(CC)(c1ccc(Oc3ccccc3)cc1)C(C#N)=C(N)O2 (centres unmarked) [Compound 2.130.]	< 1000 nM
CCC1(c2ccc(Oc3ccccc3)cc2)C(C#N)=C(N)Oc2[nH]nc(C3CC3)c21 (centres unmarked) [Compound 2.131.]	< 10000 nM
Cc1n[nH]c2c1C(c1ccc(F)c(Cl)c1)(C(C)C)C(C#N)=C(N)O2 (centres unmarked) [Compound 2.134.]	< 100 nM
Cc1n[nH]c2c1C(c1ccc(Cl)c(Cl)c1)(C(C)C)C(C#N)=C(N)O2 (centres unmarked) [Compound 2.135.]	< 100 nM
Cc1n[nH]c2c1C(c1cccc(C(F)(F)F)c1)(C(C)C)C(C#N)=C(N)O2 (centres unmarked) [Compound 2.137.]	< 100 nM
Cc1n[nH]c2c1C(c1ccc(Cl)cc1)(C1CCC1)C(C#N)=C(N)O2 (centres unmarked) [Compound 2.138.]	< 1000 nM
CCc1n[nH]c2c1C(c1ccc(Cl)cc1)(C1CCC1)C(C#N)=C(N)O2 (centres unmarked) [Compound 2.139.]	< 1000 nM
Cc1n[nH]c2c1C(CC(C)C)(c1ccc(Cl)c(Cl)c1)C(C#N)=C(N)O2 (centres unmarked) [Compound 2.141.]	< 1000 nM
Cc1n[nH]c2c1C(CC(C)C)(c1ccc(Cl)cc1)C(C#N)=C(N)O2 (centres unmarked) [Compound 2.142.]	< 10000 nM
Cc1n[nH]c2c1C(c1ccc(Cl)cc1)(C(C)C)C(C#N)=C(N)O2 (centres unmarked) [Compound 2.143.]	< 1000 nM
COc1ccc(C2(C(C)C)C(C#N)=C(N)Oc3[nH]nc(C)c32)cc1C(F)(F)F (centres unmarked) [Compound 2.144.]	< 10 nM
Cc1n[nH]c2c1C(c1cc(Cl)cc(Br)c1)(C1CC1)C(C#N)=C(N)O2 (centres unmarked) [Compound 2.146.]	< 100 nM
CCc1n[nH]c2c1C(c1ccc(OC)c(Cl)c1)(C(C)C)C(C#N)=C(N)O2 (centres unmarked) [Compound 2.147.]	< 1000 nM
COc1ccc(C2(C(C)C)C(C#N)=C(N)Oc3[nH]nc(C4CC4)c32)cc1Cl (centres unmarked) [Compound 2.148.]	< 1000 nM
COc1ccc(C2(C3CC3)C(C#N)=C(N)Oc3[nH]nc(C)c32)cc1Cl (centres unmarked) [Compound 2.149.]	< 100 nM
COc1ccc(C2(C3CC3)C(C#N)=C(N)Oc3[nH]nc(C)c32)cc1C(F)(F)F (centres unmarked) [Compound 2.150.]	< 100 nM
CCc1n[nH]c2c1C(c1ccc(OC)c(Cl)c1)(C1CC1)C(C#N)=C(N)O2 (centres unmarked) [Compound 2.151.]	< 1000 nM

The next lines start with the values.

EC50	SMILES
< 100 nM	CCc1n[nH]c2c1C(CC)(c1cc(C(F)(F)F)cc(C(F)(F)F)c1)C(C#N)=C(N)O2 (centres unmarked) [Compound 2.84.]
< 1000 nM	Cc1n[nH]c2c1C(c1cc(Cl)cc(Cl)c1)(C(F)(F)F)C(C#N)=C(N)O2 (centres unmarked) [Compound 2.88.]
< 1000 nM	CCCC1(c2cccc(Cl)c2)C(C#N)=C(N)Oc2[nH]nc(C)c21 (centres unmarked) [Compound 2.94.]
< 1000 nM	Cc1n[nH]c2c1C(c1cccc(C(F)(F)F)c1)(C(F)(F)F)C(C#N)=C(N)O2 (centres unmarked) [Compound 2.95.]
< 10000 nM	Cc1n[nH]c2c1C(CCC(F)(F)F)(c1cccc(C(F)(F)F)c1)C(C#N)=C(N)O2 (centres unmarked) [Compound 2.101.]
< 10000 nM	CCC1(c2cccc(Cl)c2)C(C#N)=C(N)Oc2[nH]nc(CCC(F)F)c21 (centres unmarked) [Compound 2.105.]
< 1000 nM	CCC1(c2cc(C(F)(F)F)cc(C(F)(F)F)c2)C(C#N)=C(N)Oc2[nH]nc(CCC(F)F)c21 (centres unmarked) [Compound 2.107.]
< 1000 nM	CCc1n[nH]c2c1C(CC)(c1cc(Cl)cc(Cl)c1)C(C#N)=C(N)O2 (centres unmarked) [Compound 2.109.]
< 10000 nM	Cc1cc(C2(C3CC3)C(C#N)=C(N)Oc3[nH]nc(C)c32)ccc1O (centres unmarked) [Compound 2.111.]
< 10 nM	Cc1n[nH]c2c1C(c1cc(Cl)cc(Cl)c1)(C(C)C)C(C#N)=C(N)O2 (centres unmarked) [Compound 2.112.]
< 100 nM	CCC1(c2cc(Cl)cc(Oc3ccccc3)c2)C(C#N)=C(N)Oc2[nH]nc(C)c21 (centres unmarked) [Compound 2.113.]
< 100 nM	CCc1n[nH]c2c1C(c1ccc(Cl)cc1)(C1CC1)C(C#N)=C(N)O2 (centres unmarked) [Compound 2.114.]
< 1000 nM	CCC1(c2cccc(Cl)c2)C(C#N)=C(N)Oc2[nH]nc(C(C)C)c21 (centres unmarked) [Compound 2.116.]
< 1000 nM	CCC1(c2cccc(C(F)(F)F)c2)C(C#N)=C(N)Oc2[nH]nc(C3CC3)c21 (centres unmarked) [Compound 2.119.]
< 100 nM	CCC1(c2cc(C(F)(F)F)cc(C(F)(F)F)c2)C(C#N)=C(N)Oc2[nH]nc(C3CC3)c21 (centres unmarked) [Compound 2.121.]
< 100 nM	Cc1n[nH]c2c1C(c1cccc(Cl)c1)(C(C)C)C(C#N)=C(N)O2 (centres unmarked) [Compound 2.122.]
< 10000 nM	CC(C)c1n[nH]c2c1C(c1ccc(Cl)cc1)(C1CC1)C(C#N)=C(N)O2 (centres unmarked) [Compound 2.128.]
< 10000 nM	N#CC1=C(N)Oc2[nH]nc(C3CC3)c2C1(c1ccc(Cl)cc1)C1CC1 (centres unmarked) [Compound 2.129.]
< 1000 nM	CCC1(c2cc(Cl)cc(Cl)c2)C(C#N)=C(N)Oc2[nH]nc(C(C)C)c21 (centres unmarked) [Compound 2.132.]
< 1000 nM	CCC1(c2cc(Cl)cc(Cl)c2)C(C#N)=C(N)Oc2[nH]nc(C3CC3)c21 (centres unmarked) [Compound 2.133.]
< 100 nM	CC(C)C1(c2cc(Cl)cc(Cl)c2)C(C#N)=C(N)Oc2[nH]nc(C3CC3)c21 (centres unmarked) [Compound 2.136.]
< 10000 nM	N#CC1=C(N)Oc2[nH]nc(C3CC3)c2C1(c1ccc(Cl)cc1)C1CCC1 (centres unmarked) [Compound 2.140.]
< 1000 nM	CCc1n[nH]c2c1C(c1ccc(OC)c(C(F)(F)F)c1)(C1CC1)C(C#N)=C(N)O2 (centres unmarked) [Compound 2.152.]
< 100 nM	Cc1n[nH]c2c1C(c1cc(Cl)cc(Oc3ccccc3)c1)(C1CC1)C(C#N)=C(N)O2 (centres unmarked) [Compound 2.153.]

Source: patent US9480259B2, “Pyrazolopyrans having herbicidal and pharmaceutical properties” (BASF SE, priority 2012, dated 2016)
